Assay results from article PMC12561408, “AI‐Driven De Novo Design of Ultra Long‐Acting GLP‐1 Receptor Agonists” (Advanced Science, 2025).

Assays:
[1] = rat, in vivo; cited from earlier work
Description: According to a study by Novo Nordisk,^[ [39] ^] […] While the fatty acid chai ...

in vivo = details: male, SD, rat, 0.05 mg/kg; for level at 72 h: Plasma Conc. at 72 h; for level at 96 h: Plasma Conc. at 96 h
Experimental: B) half‐life (T1/2). C) the maximum plasma concentration (Cmax). […] F) time to Maximum Concentration (Tmax). […] Data were analyzed with the two‐sided Student's unpaired t test. ^* p < 0.05, ^** p < 0.01, ^*** p < 0.001.
Plasma samples were analyzed using LC‐MS/MS (Waters XEVO TQ‐XS), and pharmacokinetic parameters such as T1/2, Cmax, Tmax, AUC0‐t, and MRT0‐t were calculated using WinNonlin. The sample preparation and detailed information of LC‐MS/MS are shown in Table S5 (Supporting Information).

CC[C@H](C)[C@H](NC(=O)[C@H](Cc1ccccc1)NC(=O)[C@H](CCC(=O)O)NC(=O)[C@H](CCCCNC(=O)COCCOCCNC(=O)COCCOCCNC(=O)CC[C@H](NC(=O)CCCCCCCCCCCCCCCCC(=O)O)C(=O)O)NC(=O)[C@H](C)NC(=O)[C@H](C)NC(=O)[C@H](CCC(N)=O)NC(=O)CNC(=O)[C@H](CCC(=O)O)NC(=O)[C@H](CC(C)C)NC(=O)[C@H](Cc1ccc(O)cc1)NC(=O)[C@H](CO)NC(=O)[C@H](CO)NC(=O)[C@@H](NC(=O)[C@H](CC(=O)O)NC(=O)[C@H](CO)NC(=O)[C@@H](NC(=O)[C@H](Cc1ccccc1)NC(=O)[C@@H](NC(=O)CNC(=O)[C@H](CCC(=O)O)NC(=O)C(C)(C)NC(=O)[C@@H](N)Cc1cnc[nH]1)[C@@H](C)O)[C@@H](C)O)C(C)C)C(=O)N[C@@H](C)C(=O)N[C@@H](Cc1c[nH]c2ccccc12)C(=O)N[C@@H](CC(C)C)C(=O)N[C@H](C(=O)N[C@@H](CCCNC(=N)N)C(=O)NCC(=O)N[C@@H](CCCNC(=N)N)C(=O)NCC(=O)O)C(C)C [Semaglutide]
half‐life in rats (literature) [1]: 7 to 8 h
level at 2 h (in vivo; Plasma Conc. at 2 h, animal 1): 241 ng/mL
level at 2 h (in vivo; Plasma Conc. at 2 h, animal 2): 262 ng/mL
level at 2 h (in vivo; Plasma Conc. at 2 h, animal 3): 272 ng/mL
level at 4 h (in vivo; Plasma Conc. at 4 h, animal 1): 308 ng/mL
level at 4 h (in vivo; Plasma Conc. at 4 h, animal 2): 275 ng/mL
level at 4 h (in vivo; Plasma Conc. at 4 h, animal 3): 339 ng/mL
level at 8 h (in vivo; Plasma Conc. at 8 h, animal 1): 321 ng/mL
level at 8 h (in vivo; Plasma Conc. at 8 h, animal 2): 327 ng/mL
level at 8 h (in vivo; Plasma Conc. at 8 h, animal 3): 341 ng/mL
level at 12 h (in vivo; Plasma Conc. at 12 h, animal 1): 283 ng/mL
level at 12 h (in vivo; Plasma Conc. at 12 h, animal 2): 278 ng/mL
level at 24 h (in vivo; Plasma Conc. at 24 h, animal 1): 133 ng/mL
level at 24 h (in vivo; Plasma Conc. at 24 h, animal 2): 135 ng/mL
level at 48 h (in vivo; Plasma Conc. at 48 h, animal 1): 12.9 ng/mL
level at 48 h (in vivo; Plasma Conc. at 48 h, animal 2): 13.4 ng/mL
level at 72 h (in vivo; animal 1): 1.5 ng/mL
level at 72 h (in vivo; animal 2): 1.8 ng/mL
level at 96 h (in vivo; animal 1): 1 ng/mL
level at 96 h (in vivo; animal 2): 0.3 ng/mL
level at 2 h (in vivo; Plasma concentration at 2 h (mean)): 258 ng/mL
level at 4 h (in vivo; Plasma concentration at 4 h (mean)): 307 ng/mL
level at 8 h (in vivo; Plasma concentration at 8 h (mean)): 330 ng/mL
level at 12 h (in vivo; Plasma concentration at 12 h (mean)): 280 ng/mL
level at 24 h (in vivo; Plasma concentration at 24 h (mean)): 132 ng/mL
level at 48 h (in vivo; Plasma concentration at 48 h (mean)): 13.9 ng/mL
